Assay results published in patent US11186577B2, “Vasopressin receptor antagonists and products and methods related thereto” (BlackThorn Therapeutics, Inc., priority 2017, dated 2021).

What was measured:
[1] = target: human Arginine Vasopressin Receptor 1a (AVPR1a) (Homo sapiens (Human), UniProt P37288); test: Vasopressin V1A receptor antagonist assay (AVP-evoked calcium, FLIPR, CHO-AVPR1a cells); type: cell-based; settings: read-out: V1a IC50
Outline: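 Antagonism measured as reduction of AVP (EC80, set each assay day) calcium response on FLIPR in dye-loaded CHO-AVPR1a cells. Compounds, 3 μM top in 10-point 1:3 dilution, in duplicate, added 15 min before agonist at 37° C.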

[2] = test system: wild-type (WT) MDCK cells; test: MDR1-MDCK effective efflux assay (Transwell, 10 μM, 1 hour), wild-type MDCK cells; type: in vitro ADME; settings: MDCK
Description: (§1) The MDR1-MDCK effective efflux assay was performed as described in the BioFocus Standard Operating Procedure, ADME-SOP-56. Both wild-type (WT) and MDR1-MDCK cells (Solvo Biotechnology) were seeded onto 24-well Transwell plates at 2.35×10^5 cells per well and used in confluent monolayers after a 3 day culture at 37° C. under 5% CO2. For both cell types, test and control compounds (propranolol, vinblastine) were added (10 μM, 0.1% DMSO final, n=2) to donor compartments of the Transwell plate assembly in assay buffer (Hanks balanced salt solution supplemented with 25 mM HEPES, adjusted to pH 7.4) for both apical to basolateral (A>B) and basolateral to apical (B>A) measurements. Incubations were performed at 37° C., with samples removed from both donor and acceptor chambers at T=0 and 1 hour and compound analysed by mass spectrometry (LC-MS/MS) including an analytical internal standard.
(§2) Where V is the volume of each Transwell compartment (apical 125 basolateral 600 and concentrations are the relative MS responses for compound (normalized to internal standard) in the donor chamber before incubation and acceptor chamber at the end of the incubation. Area=area of cells exposed for drug transfer (0.33 cm2).
(§3) Efflux ratios (Papp B>A/Papp A>B) were calculated for each compound from the mean Papp values in each direction for both wild-type and MDR1-MDCK cells.
(§4) In order to confirm the involvement of MDR1 in any efflux seen, an “effective efflux ratio” (EER) was calculated by comparing compound efflux ratios (ER) in the two cell types, i.e. EER=ER(MDR1−MDCK)/ER(wild-type MDCK)
(§5) This ratio illustrates the effect of the over-expressed MDR1 normalised for the background movement of compound through the wild-type cells.
(§6) Lucifer Yellow (LY) was added to the apical buffer in all wells to assess viability of the cell layer. Compound recovery from the wells was determined from MS responses (normalized to internal standard) in donor and acceptor chambers at the end of incubation compared to response in the donor chamber pre-incubation.

[3] = as above; type: in vitro ADME; settings: dog, MDCK, pH 7.4, Papp AB WT
Description: as §1, §2, §3, §4, §5, §6

[4] = target: human Oxytocin Receptor (hOTR) (Homo sapiens (Human), UniProt P30559); test: Oxytocin receptor antagonist assay (oxytocin-evoked calcium, FLIPR, CHEM-1-hOTR cells); type: cell-based; settings: read-out: OT IC50
Outline: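 Oxytocin-evoked intracellular calcium rise measured by FLIPR^TETRA fluorescence (Calcium-6 dye, 3 min read) in CHEM-1-hOTR cells. Test compounds, 10-point 1:3 dilutions, were added 15 min at 37 °C before an EC80 oxytocin challenge (EC80 set each assay day); buffer HBSS with 20 mM HEPES.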

MDR1-MDCK cells = test: MDR1-MDCK effective efflux assay (Transwell, 10 μM, 1 hour), MDR1-MDCK cells; type: in vitro ADME; settings: MDCK-MDR1
Description: as §1, §2, §3, §4, §5, §6

MDR1 (P-glycoprotein) = test: as above; type: in vitro ADME; settings: dog, MDCK-MDR1, pH 7.4, Papp AB MDR1
Description: as §1, §2, §3, §4, §5, §6

MDR1 (P-gp) = test: in vitro; settings: dog, MDCK-MDR1

human Arginine Vasopressin Receptor 1a (AVPR1a), sequence (P37288 whole entry): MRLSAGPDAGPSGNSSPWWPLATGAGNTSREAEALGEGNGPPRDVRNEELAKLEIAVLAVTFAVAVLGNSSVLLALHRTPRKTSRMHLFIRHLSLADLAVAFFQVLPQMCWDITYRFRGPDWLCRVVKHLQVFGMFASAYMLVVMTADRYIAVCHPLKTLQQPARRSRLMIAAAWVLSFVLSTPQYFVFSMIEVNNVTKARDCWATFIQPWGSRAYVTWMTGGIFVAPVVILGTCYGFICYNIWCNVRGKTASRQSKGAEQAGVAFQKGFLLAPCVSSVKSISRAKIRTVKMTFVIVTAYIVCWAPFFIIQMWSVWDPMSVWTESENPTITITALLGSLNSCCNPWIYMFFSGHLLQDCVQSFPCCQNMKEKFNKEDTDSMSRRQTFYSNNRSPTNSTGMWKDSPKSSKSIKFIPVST
human Oxytocin Receptor (hOTR), sequence (P30559 whole entry): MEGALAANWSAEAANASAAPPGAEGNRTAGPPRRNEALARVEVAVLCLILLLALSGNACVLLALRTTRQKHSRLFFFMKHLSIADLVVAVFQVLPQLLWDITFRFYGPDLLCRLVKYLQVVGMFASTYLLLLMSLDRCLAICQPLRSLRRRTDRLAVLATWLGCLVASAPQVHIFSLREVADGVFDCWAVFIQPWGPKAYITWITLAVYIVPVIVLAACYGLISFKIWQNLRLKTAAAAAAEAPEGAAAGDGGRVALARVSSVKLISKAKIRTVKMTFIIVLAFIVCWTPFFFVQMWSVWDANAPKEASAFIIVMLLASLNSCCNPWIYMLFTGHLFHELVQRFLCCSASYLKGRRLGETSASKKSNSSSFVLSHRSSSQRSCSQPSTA

Compound	IC50 [1] [nM]	WT ER [2]	Papp A→B at 1 h, 10 μM [3] [×10⁻⁶ cm/s]	IC50 [4] [nM]	MDR1 EER (MDR1-MDCK cells)	MDR1 ER (MDR1-MDCK cells)	Papp A→B at 1 h, 10 μM (MDR1 (P-glycoprotein)) [×10⁻⁶ cm/s]	Papp A→B at 2 h (MDR1 (P-gp)) [×10⁻⁶ cm/s]
CCC(=O)N1Cc2cc(Cl)ccc2-n2c(nnc2C2CC3(C2)CN(C(=O)C2CC2)C3)C1 [compound 16]	< 100	+	< 7	> 1000	++	+	< 7	–
O=C(C1CC1)N1Cc2cc(Cl)ccc2-n2c(nnc2C2CC3(C2)CN(c2ccccn2)C3)C1 [compound 65]	< 100	++++	> 20	> 1000	+	+	< 7	–
CC(=O)N1Cc2cc(Cl)ccc2-n2c(nnc2C2CC3(C2)CN(c2ccccn2)C3)C1 [compound 73]	< 100	+	10 to 20	> 1000	+	+	< 7	–
O=C(C1CC1)N1Cc2cc(Cl)ccc2-n2c(nnc2C2CC3(C2)CN(c2ccc(F)cn2)C3)C1 [compound 74]	< 100	+++	> 20	> 1000	+	+	< 7	–
COC(=O)N1Cc2cc(Cl)ccc2-n2c(nnc2C2CC3(C2)CN(c2ncc(F)cn2)C3)C1 [compound 92]	< 100	+++	> 20	> 1000	+	+	7 to 10	–
CC(=O)N1Cc2cc(Cl)ccc2-n2c(nnc2C2CC3(C2)CN(c2cnccn2)C3)C1 [compound 93]	< 100	+	< 7	> 1000	+	+	< 7	–
CC(=O)N1Cc2cc(Cl)ccc2-n2c(nnc2C2CC3(C2)CN(c2cccc(C#N)n2)C3)C1 [compound 94]	< 100	+	10 to 20	> 1000	+	+	< 7	–
CCC(=O)N1Cc2cc(Cl)ccc2-n2c(nnc2C2CC3(C2)CN(c2ncccn2)C3)C1 [compound 107, 1-(8-chloro-1-(2-(pyrimidin-2-yl)-2-azaspiro[3.3]heptan-6-yl)-4H-benzo[f][1,2,4]triazolo[4,3-a][1,4]diazepin-5(6H)-yl)propan-1-one]	< 100	+	10 to 20	> 1000	+	+	< 7	–
CCC(=O)N1Cc2cc(Cl)ccc2-n2c(nnc2C2CC3(C2)CN(c2cnccn2)C3)C1 [compound 110]	< 100	+	10 to 20	> 1000	+	+	< 7	–
CCC(=O)N1Cc2cc(Cl)ccc2-n2c(nnc2C2CC3(C2)CN(c2cccc(F)n2)C3)C1 [compound 113]	< 100	+++	> 20	> 1000	+	+	< 7	–
O=C(C1CCC1)N1Cc2cc(Cl)ccc2-n2c(nnc2C2CC3(C2)CN(c2ccc(F)cn2)C3)C1 [compound 114]	< 100	+	< 7	> 1000	+	+	< 7	–
O=C(C(F)F)N1Cc2cc(Cl)ccc2-n2c(nnc2C2CC3(C2)CN(c2ccc(F)cn2)C3)C1 [compound 116]	< 100	++++	> 20	> 1000	+	+	< 7	–
CCC(=O)N1Cc2cc(Cl)ccc2-n2c(nnc2C2CC3(C2)CN(c2cccc(C#N)n2)C3)C1 [compound 125]	< 100	+++	> 20	> 1000	+	+	< 7	–
O=C(N1Cc2cc(Cl)ccc2-n2c(nnc2C2CC3(C2)CN(c2ccc(F)cn2)C3)C1)C1(F)CC1 [compound 156]	< 100	+++	> 20	> 1000	++	+	10 to 20	–
CC(C)OC(=O)N1Cc2cc(Cl)ccc2-n2c(C3CC4(C3)CN(c3ccncn3)C4)nnc2C1C (stereo not drawn) [compound 187]	100 to 500	++++	> 20	–	–	++	> 20	–
CC1c2nnc(C3CC4(C3)CN(c3ncc(F)cn3)C4)n2-c2ccc(Cl)cc2CN1C(=O)OC1CC1 (stereo not drawn) [compound 192]	< 100	+++	> 20	–	+++	+++	> 20	–
CC1c2nnc(C3CC4(C3)CN(c3ccc(F)cn3)C4)n2-c2ccc(Cl)cc2CN1C(=O)OC1CC(F)(F)C1 (stereo not drawn) [compound 193, 3,3-difluorocyclobutyl 8-chloro-1-(2-(5-fluoropyridin-2-yl)-2-azaspiro[3.3]heptan-6-yl)-4-methyl-4H-benzo[f][1,2,4]triazolo[4,3-a][1,4]diazepine-5(6H)-carboxylate]	< 100	+++	> 20	> 1000	+++	+++	> 20	–
Cc1cccc(N2CC3(CC(c4nnc5n4-c4ccc(Cl)cc4CN(C4CC4)C5)C3)C2)n1 [compound 218]	< 100	–	–	–	–	–	–	> 20
Cc1nc(N2CC3(CC(c4nnc5n4-c4ccc(Cl)cc4CN(C4CC4)C5)C3)C2)ncc1F [compound 220]	< 100	–	–	–	–	–	–	> 20
Fc1cnc(N2CC3(CC(c4nnc5n4-c4ccc(Cl)cc4CN(C4CC4)C5)C3)C2)nc1 [compound 224]	< 100	–	–	–	–	–	–	> 20
Clc1ccc2c(c1)CN(C1CC1)Cc1nnc(C3CC4(C3)CN(c3ncccn3)C4)n1-2 [compound 225]	< 100	–	–	–	–	–	–	> 20
O=C(C1CC1)N1CC2(CC(c3nnc4n3-c3ccc(Cl)cc3CN(C3CC3)C4)C2)C1 [compound 226, (6-(8-chloro-5-cyclopropyl-5,6-dihydro-4H-benzo[1,2,4]triazolo[4,3-a][1,4]diazepin-1-yl)-2-azaspiro[3.3]heptan-2-yl)(cyclopropyl)methanone]	–	–	–	–	–	–	–	< 7
Cc1nc(N2CC3(CC(c4nnc5n4-c4ccc(Cl)cc4CN(C)C5)C3)C2)ccc1F [compound 242]	< 100	–	–	–	–	–	–	> 20
Fc1ccc(N2CC3(CC(c4nnc5n4-c4ccc(Cl)cc4CN(CC(F)(F)F)C5)C3)C2)nc1 [compound 259, 8-chloro-1-(2-(5-fluoropyridin-2-yl)-2-azaspiro[3.3]heptan-6-yl)-5-(2,2,2-trifluoroethyl)-5,6-dihydro-4H-benzo[f][1,2,4]triazolo[4,3-a][1,4]diazepine]	< 100	–	–	–	–	–	–	> 20
